Measurements: publication PMC7433010, “Exploration of multi‐target effects of 3‐benzoyl‐5‐hydroxychromen‐2‐one in Alzheimer’s disease cell and mouse models” (Aging Cell, 2020)

Biological target: T1, ΔK280 TauRD‐DsRed (Homo sapiens, UniProt P10636, DEL597-597)
T1 construct: containing residues 244–372 of the full‐length 4R2N Tau441; expressed in transfected cells; host or cells: Tet-On 293 cells, doxycycline-induced (pcDNA5/FRT/TO/TauRD-DsRed)
Assay: ∆K280 TauRD‐DsRed fluorescence assay (Tau misfolding) in 293 cells
Format: cell-based
Settings: 3 days
Text: In ∆K280 TauRD‐DsRed 293 cells, a proaggregant (ΔK280) Tau repeat domain (TauRD) containing residues 244–372 of the full‐length 4R2N Tau441 was fused in‐frame with DsRed fluorophore. Compared to the wild‐type TauRD, the poorly folded ΔK280 TauRD formed aggregates, which adversely affected the folding of fused DsRed and thus decreased DsRed fluorescence, as also evidenced by increase in thioflavin S fluorescence emission (Chang et al., 2017). Thioflavin S is a reporter dye for studies of Tau toxicity and pharmacologic prevention in cell model of tauopathy (Pickhardt et al., 2017). It binds to amyloid fibrils but not monomers and gives a distinct increase in fluorescence emission. Inhibition of Tau aggregation may improve DsRed misfolding, leading to increased fluorescence in ΔK280 TauRD‐DsRed‐expressing cells. […] In the following experiments, DsRed fluorescence was measured in wells containing at least 80% viable cells. […]
DsRed fluorescence of proaggregant ∆K280 TauRD-DsRed 293 cells was evaluated to reflect Tau aggregation. […] Thioflavin S images (FITC 543 nm excitation and 593 nm emission) were captured and analyzed as described. In general, 2 × 10^4 cells in each biological replicate were analyzed.
Figure S2. ΔK280 TauRD-DsRed 293 cells. […] DsRed/thioﬂavin S fluorescence, ROS, and caspase 3 activity were assessed on day 5. […] (c) Dose response curves of LM-031 based on DsRed fluorescence measurement. […]

T1 sequence (P10636 with tags, fused parts or gaps isoform P10636-8 DEL280-280): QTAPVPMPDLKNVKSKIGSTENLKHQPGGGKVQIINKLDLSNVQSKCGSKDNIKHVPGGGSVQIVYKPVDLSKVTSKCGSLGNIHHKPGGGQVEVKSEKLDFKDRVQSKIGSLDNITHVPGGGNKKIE

| ∆K280 TauRD‐DsRed fluorescence (10 µM, no treatment = 100%) [%] | ∆K280 TauRD‐DsRed fluorescence (1 µM, untreated cells = 100%) [%] | SMILES |
| --- | --- | --- |
| 108 |  | Nc1c(/N=N/c2ccc(-c3ccc(/N=N/c4cc(S(=O)(=O)O)c5ccccc5c4N)cc3)cc2)cc(S(=O)(=O)O)c2ccccc12 [congo red, reference compound] |
|  | 105 | C=CC(C)(C)c1cc(/C=C/C(=O)c2ccc(O)cc2)c(OC)cc1O [licochalcone A, reference compound] |
